Measured values taken from PubChem BioAssay AID1745844 (Carcinogenic Potency Database (CPDB), 2022).
Several values for one entry are separate records, joined by “and”; a condition that tells them apart may be missing. Equal entries are not always repeated. Activity calls are given as the source filed them. How the calls were made is not given here.

Tested on: rodent lifetime carcinogenesis bioassay, tumor incidence TD50
Assay: chronic cancer bioassays in animals – CPDB, compiled studies (AID 1745844)

**Q.** `ClC=C(Cl)Cl` was tested. Which carcinogen call (hamster, strain Syrian Golden, females, inhaled, site: any site (literature study), lesion: benign tumor, dosed 78 weeks, study length 130 weeks) did it give?
**A.** negative (inactive)

**Q.** And the TD50 (hamster, strain Syrian Golden, females, inhaled, site: any site (literature study), lesion: malignant tumor, dosed 78 weeks, study length 130 weeks)?
**A.** 9220 mg/kg/day (inactive)

**Q.** What about the carcinogen call (hamster, strain Syrian Golden, females, inhaled, site: liver, lesion: several types, types named in the paper, dosed 78 weeks, study length 130 weeks) of the same compound?
**A.** negative (inactive)

**Q.** And the TD50 (hamster, strain Syrian Golden, males, inhaled, site: any site (literature study), lesion: benign tumor, dosed 78 weeks, study length 130 weeks)?
**A.** 5640 mg/kg/day (inactive)

**Q.** And the carcinogen call (hamster, strain Syrian Golden, males, inhaled, site: any site (literature study), lesion: malignant tumor, dosed 78 weeks, study length 130 weeks)?
**A.** negative (inactive)

**Q.** And the carcinogen call (hamster, strain Syrian Golden, males, inhaled, site: liver, lesion: several types, types named in the paper, dosed 78 weeks, study length 130 weeks)?
**A.** negative (inactive)

**Q.** What about the TD50 (mouse, strain B6C3F1, females, by gavage, site: any site (literature study), lesion: several types, types named in the paper, dosed 78 weeks, study length 90 weeks) of the same compound?
**A.** 1850 mg/kg/day

**Q.** What about the TD50 (mouse, strain B6C3F1, females, by gavage, site: any site (literature study), lesion: several types, types named in the paper, dosed 103 weeks, study length 105 weeks) of the same compound?
**A.** 359 mg/kg/day

**Q.** And the TD50 (mouse, strain B6C3F1, females, by gavage, site: liver + multiple organs + spleen, lesion: malignant lymphoma, histiocytic type + malignant lymphoma, mixed type + malignant lymphoma, lymphocytic type + malignant lymph, dosed 103 weeks, study length 105 weeks)?
**A.** 1350 mg/kg/day and 1470 mg/kg/day

**Q.** And the TD50 (mouse, strain B6C3F1, females, by gavage, site: liver, lesion: hepatocellular adenoma + hepatocellular carcinoma + neoplastic nodule, dosed 78 weeks, study length 90 weeks)?
**A.** 1930 mg/kg/day

**Q.** What about the TD50 (mouse, strain B6C3F1, females, by gavage, site: liver, lesion: hepatocellular adenoma + hepatocellular carcinoma + neoplastic nodule, dosed 103 weeks, study length 105 weeks) of the same compound?
**A.** 411 mg/kg/day

**Q.** And the TD50 (mouse, strain B6C3F1, females, by gavage, site: liver, lesion: hepatocellular adenoma + hepatocellular carcinoma, dosed 103 weeks, study length 105 weeks)?
**A.** 411 mg/kg/day

**Q.** And the TD50 (mouse, strain B6C3F1, females, by gavage, site: liver, lesion: hepatocellular adenoma, dosed 103 weeks, study length 105 weeks)?
**A.** 579 mg/kg/day

**Q.** What about the TD50 (mouse, strain B6C3F1, females, by gavage, site: liver, lesion: hepatocellular carcinoma, dosed 78 weeks, study length 90 weeks) of the same compound?
**A.** 1930 mg/kg/day

**Q.** What about the TD50 (mouse, strain B6C3F1, females, by gavage, site: liver, lesion: hepatocellular carcinoma, dosed 103 weeks, study length 105 weeks) of the same compound?
**A.** 673 mg/kg/day

**Q.** And the TD50 (mouse, strain B6C3F1, females, by gavage, site: lung, lesion: alveolar/bronchiolar adenoma + alveolar/bronchiolar carcinoma, dosed 78 weeks, study length 90 weeks)?
**A.** 4350 mg/kg/day

**Q.** And the TD50 (mouse, strain B6C3F1, females, by gavage, site: lung, lesion: alveolar/bronchiolar adenoma + alveolar/bronchiolar carcinoma, dosed 103 weeks, study length 105 weeks)?
**A.** 3850 mg/kg/day

**Q.** What about the TD50 (mouse, strain B6C3F1, females, by gavage, site: lung, lesion: alveolar/bronchiolar adenoma, dosed 103 weeks, study length 105 weeks) of the same compound?
**A.** 2780 mg/kg/day

**Q.** And the TD50 (mouse, strain B6C3F1, females, by gavage, site: multiple organs, lesion: malignant lymphoma, lymphocytic type, dosed 103 weeks, study length 105 weeks)?
**A.** 4880 mg/kg/day

**Q.** And the TD50 (mouse, strain B6C3F1, females, inhaled, site: any site (literature study), lesion: malignant tumor, dosed 78 weeks, study length 154 weeks)?
**A.** 2080 mg/kg/day

**Q.** And the TD50 (mouse, strain B6C3F1, females, inhaled, site: any site (literature study), lesion: several types, types named in the paper, dosed 78 weeks, study length 154 weeks)?
**A.** 1320 mg/kg/day

**Q.** And the TD50 (mouse, strain B6C3F1, females, inhaled, site: liver, lesion: hepatoma, dosed 78 weeks, study length 154 weeks)?
**A.** 13600 mg/kg/day

**Q.** And the TD50 (mouse, strain B6C3F1, females, inhaled, site: lung, lesion: one or several types, types not named, dosed 78 weeks, study length 154 weeks)?
**A.** 6320 mg/kg/day

**Q.** What about the TD50 (mouse, strain B6C3F1, females, inhaled, site: thyroid gland, lesion: adenoma, dosed 78 weeks, study length 154 weeks) of the same compound?
**A.** 2.23e+06 mg/kg/day

**Q.** What about the TD50 (mouse, strain B6C3F1, females, inhaled, site: thyroid gland, lesion: carcinoma, dosed 78 weeks, study length 154 weeks) of the same compound?
**A.** 131000 mg/kg/day

**Q.** What about the TD50 (mouse, strain B6C3F1, males, by gavage, site: Harderian gland, lesion: adenoma, NOS + acinar-cell adenoma + papillary adenoma, dosed 103 weeks, study length 105 weeks) of the same compound?
**A.** 3830 mg/kg/day

**Q.** What about the TD50 (mouse, strain B6C3F1, males, by gavage, site: any site (literature study), lesion: several types, types named in the paper, dosed 78 weeks, study length 90 weeks) of the same compound?
**A.** 553 mg/kg/day

**Q.** What about the TD50 (mouse, strain B6C3F1, males, by gavage, site: any site (literature study), lesion: several types, types named in the paper, dosed 103 weeks, study length 105 weeks) of the same compound?
**A.** 332 mg/kg/day

**Q.** What about the TD50 (mouse, strain B6C3F1, males, by gavage, site: liver, lesion: hepatocellular adenoma + hepatocellular carcinoma + neoplastic nodule, dosed 78 weeks, study length 90 weeks) of the same compound?
**A.** 421 mg/kg/day

**Q.** And the TD50 (mouse, strain B6C3F1, males, by gavage, site: liver, lesion: hepatocellular adenoma + hepatocellular carcinoma + neoplastic nodule, dosed 103 weeks, study length 105 weeks)?
**A.** 239 mg/kg/day

**Q.** And the TD50 (mouse, strain B6C3F1, males, by gavage, site: liver, lesion: hepatocellular adenoma + hepatocellular carcinoma, dosed 103 weeks, study length 105 weeks)?
**A.** 239 mg/kg/day

**Q.** And the TD50 (mouse, strain B6C3F1, males, by gavage, site: liver, lesion: hepatocellular adenoma, dosed 103 weeks, study length 105 weeks)?
**A.** 855 mg/kg/day

**Q.** And the TD50 (mouse, strain B6C3F1, males, by gavage, site: liver, lesion: hepatocellular carcinoma, dosed 78 weeks, study length 90 weeks)?
**A.** 421 mg/kg/day

**Q.** And the TD50 (mouse, strain B6C3F1, males, by gavage, site: liver, lesion: hepatocellular carcinoma, dosed 103 weeks, study length 105 weeks)?
**A.** 294 mg/kg/day

**Q.** And the TD50 (mouse, strain B6C3F1, males, by gavage, site: lung, lesion: alveolar/bronchiolar adenoma + alveolar/bronchiolar carcinoma, dosed 78 weeks, study length 90 weeks)?
**A.** 7160 mg/kg/day

**Q.** And the TD50 (mouse, strain B6C3F1, males, by gavage, site: lung, lesion: alveolar/bronchiolar adenoma + alveolar/bronchiolar carcinoma, dosed 103 weeks, study length 105 weeks)?
**A.** 4250 mg/kg/day

**Q.** What about the TD50 (mouse, strain B6C3F1, males, in drinking water, site: liver, lesion: hepatocellular adenoma, dosed 61 weeks, study length 61 weeks) of the same compound?
**A.** 502 mg/kg/day

**Q.** And the TD50 (mouse, strain B6C3F1, males, in drinking water, site: liver, lesion: hepatocellular carcinoma, dosed 61 weeks, study length 61 weeks)?
**A.** 16 mg/kg/day

**Q.** And the TD50 (mouse, strain B6C3F1, males, inhaled, site: liver, lesion: angiosarcoma, dosed 78 weeks, study length 135 weeks)?
**A.** 77000 mg/kg/day

**Q.** And the TD50 (mouse, strain B6C3F1, males, inhaled, site: liver, lesion: hepatoma, dosed 78 weeks, study length 135 weeks)?
**A.** 4530 mg/kg/day

**Q.** And the TD50 (mouse, strain B6C3F1, males, inhaled, site: liver, lesion: hepatoma, dosed 78 weeks, study length 154 weeks)?
**A.** 5030 mg/kg/day

**Q.** What about the TD50 (mouse, strain Ha/ICR, females, by gavage, site: forestomach, lesion: one or several types, types not named, dosed 88 weeks, study length 88 weeks) of the same compound?
**A.** 41.3 mg/kg/day (inactive)

**Q.** What about the TD50 (mouse, strain Ha/ICR, males, by gavage, site: forestomach, lesion: one or several types, types not named, dosed 88 weeks, study length 88 weeks) of the same compound?
**A.** 16.9 mg/kg/day (inactive)

**Q.** And the TD50 (mouse, strain Han:NMRI, females, inhaled, site: all sites, lesion: malignant lymphoma, dosed 78 weeks, study length 130 weeks)?
**A.** 846 mg/kg/day

**Q.** What about the carcinogen call (mouse, strain Han:NMRI, females, inhaled, site: any site (literature study), lesion: benign tumor, dosed 78 weeks, study length 130 weeks) of the same compound?
**A.** negative (inactive)

**Q.** What about the TD50 (mouse, strain Han:NMRI, females, inhaled, site: any site (literature study), lesion: malignant tumor, dosed 78 weeks, study length 130 weeks) of the same compound?
**A.** 573 mg/kg/day (inactive)

**Q.** And the carcinogen call (mouse, strain Han:NMRI, females, inhaled, site: liver, lesion: several types, types named in the paper, dosed 78 weeks, study length 130 weeks)?
**A.** negative (inactive)

**Q.** And the carcinogen call (mouse, strain Han:NMRI, females, inhaled, site: lung, lesion: alveolar/bronchiolar adenoma, dosed 78 weeks, study length 130 weeks)?
**A.** negative (inactive)

**Q.** What about the carcinogen call (mouse, strain Han:NMRI, females, inhaled, site: lung, lesion: alveolar/bronchiolar carcinoma, dosed 78 weeks, study length 130 weeks) of the same compound?
**A.** negative (inactive)

**Q.** What about the carcinogen call (mouse, strain Han:NMRI, males, inhaled, site: all sites, lesion: malignant lymphoma, dosed 78 weeks, study length 130 weeks) of the same compound?
**A.** negative (inactive)

**Q.** And the carcinogen call (mouse, strain Han:NMRI, males, inhaled, site: any site (literature study), lesion: benign tumor, dosed 78 weeks, study length 130 weeks)?
**A.** negative (inactive)

**Q.** What about the carcinogen call (mouse, strain Han:NMRI, males, inhaled, site: any site (literature study), lesion: malignant tumor, dosed 78 weeks, study length 130 weeks) of the same compound?
**A.** negative (inactive)

**Q.** What about the carcinogen call (mouse, strain Han:NMRI, males, inhaled, site: liver, lesion: hepatocellular adenoma, dosed 78 weeks, study length 130 weeks) of the same compound?
**A.** negative (inactive)

**Q.** What about the carcinogen call (mouse, strain Han:NMRI, males, inhaled, site: liver, lesion: hepatocellular carcinoma, dosed 78 weeks, study length 130 weeks) of the same compound?
**A.** negative (inactive)

**Q.** What about the carcinogen call (mouse, strain Han:NMRI, males, inhaled, site: liver, lesion: hepatoma, benign, dosed 78 weeks, study length 130 weeks) of the same compound?
**A.** negative (inactive)

**Q.** And the carcinogen call (mouse, strain Han:NMRI, males, inhaled, site: lung, lesion: alveolar/bronchiolar adenoma, dosed 78 weeks, study length 130 weeks)?
**A.** negative (inactive)

**Q.** What about the carcinogen call (mouse, strain Han:NMRI, males, inhaled, site: lung, lesion: malignant tumor, dosed 78 weeks, study length 130 weeks) of the same compound?
**A.** negative (inactive)

**Q.** And the TD50 (mouse, strain ICR, females, inhaled, site: any site (literature study), lesion: several types, types named in the paper, dosed 104 weeks, study length 107 weeks)?
**A.** 1900 mg/kg/day

**Q.** And the TD50 (mouse, strain ICR, females, inhaled, site: liver, lesion: adenoma, dosed 104 weeks, study length 107 weeks)?
**A.** 42300 mg/kg/day

**Q.** And the TD50 (mouse, strain ICR, females, inhaled, site: lung, lesion: adenocarcinoma, dosed 104 weeks, study length 107 weeks)?
**A.** 3380 mg/kg/day

**Q.** What about the TD50 (mouse, strain ICR, females, inhaled, site: lung, lesion: several types, types named in the paper, dosed 104 weeks, study length 107 weeks) of the same compound?
**A.** 3370 mg/kg/day

**Q.** What about the TD50 (mouse, strain Swiss, females, inhaled, site: any site (literature study), lesion: malignant tumor, dosed 78 weeks, study length 145 weeks) of the same compound?
**A.** 9840 mg/kg/day

**Q.** What about the TD50 (mouse, strain Swiss, females, inhaled, site: any site (literature study), lesion: several types, types named in the paper, dosed 78 weeks, study length 145 weeks) of the same compound?
**A.** 9190 mg/kg/day

**Q.** What about the TD50 (mouse, strain Swiss, females, inhaled, site: liver, lesion: hepatoma, dosed 78 weeks, study length 145 weeks) of the same compound?
**A.** 121000 mg/kg/day

**Q.** And the TD50 (mouse, strain Swiss, females, inhaled, site: lung, lesion: one or several types, types not named, dosed 78 weeks, study length 145 weeks)?
**A.** 35400 mg/kg/day

**Q.** What about the TD50 (mouse, strain Swiss, males, inhaled, site: any site (literature study), lesion: malignant tumor, dosed 78 weeks, study length 145 weeks) of the same compound?
**A.** 6320 mg/kg/day
